Experimental data as given in article PMC6321172, “Analysis of Vipadenant and Its In Vitro and In Vivo Metabolites via Liquid Chromatography-Quadrupole-Time-of-Flight Mass Spectrometry” (Pharmaceutics, 2018).
Where two headings read alike, the source gives them in different places.

Experiments:
[1] = Stock solution stability assessment (1 mg/mL in DMSO); assay type: physicochemical; details: for Mean Accuracy (%), stock storage stability: DMSO stock, 6 months, −80°C
Method: (§1) Each stability assessment was carried out in blank rat plasma. Three levels of QC (low, medium and high) were used in the short-term, freeze-thaw, long-term and post-preparative stability assessments and two levels of QC (medium & high) were used in stock solution stability assessment. The short term stability assessment was carried out at room temperature (RT) over 4 h and the results obtained were compared with the control (0 min). In the long-term stability assessment, the samples kept frozen at −80 °C for 2 weeks were compared with the freshly prepared control group samples. The freeze-thaw stability was evaluated over three cycles of freezing (−80 °C) and thawing (RT). The post-preparative stability was assessed for the QC samples kept in an auto-sampler (10 °C) for 24 h. As a separate stock-solution stability assessment, the vipadenant stock-solution prepared at 1 mg/mL (DMSO) was stored at −80 °C for 6 months and its stability was evaluated. The stability test results were evaluated by confirming that the mean accuracy (%) of the nominal value which should be within ± 25% range.

[2] = Preliminary stability assessment in rat plasma QC samples; assay type: physicochemical; details: for Mean Accuracy (%), post-preparative stability: processed rat plasma samples, 24 h, 4 °C; for Mean Accuracy (%), long-term stability: 2 weeks; for Mean Accuracy (%), long-term stability / Mean Accuracy (%), freeze-thaw stability: −80 °C; for Mean Accuracy (%), freeze-thaw stability: 3 cycles; for Mean Accuracy (%), short term stability: 4 h, RT
Method: as §1, with “The post-preparative stability was assessed for the QC samples kept in an auto-sampler (10 °C) for 24 h.” left out

[3] = In-house metabolic stability study (rat liver microsome); assay type: in vitro ADME; details: liver microsomes, read-out: in vitro intrinsic clearance
[4] = Rat pharmacokinetic study after IV or PO administration; assay type: in vivo; details: for Cmax: read-out: C0 or Cmax; for Vd: read-out: Vss
Method: Twenty microliters of the rat pharmacokinetics samples were placed in cluster tubes. As a make-up solution, 4 μL of DMSO was added to the cluster tube and 100 μL of ACN containing ISTD (verapamil) was also added. The mixture was capped, gently shaken for approximately 1 min and was then centrifuged for 5 min at 12,000 rpm (4 °C). Following the centrifugation, 50 μL supernatant was transferred to a clean test tube and was diluted with 100 μL of distilled water. The resulting mixture was then transferred to an LC-vial and 10 μL was injected to the LC-QTOF-MS. The same procedure was also applied to the STD samples and QC samples.
Data acquisition and LC-QTOF-MS operation was conducted using Analyst® TF Version 1.6 (Sciex). MultiQuant® Version 2.1.1 (Sciex) was used for the peak integration for vipadenant quantification. PeakView® Version 2.2 and MetabolitePilot™ Version 2.0.2 were used for the structural elucidation of vipadenant metabolites. […] Pharmacokinetic parameters were calculated in a non-compartmental analysis using WinNonlin® version 8.0.0 (Certara, Princeton, NJ, USA).
Male sprague-dawley rats (300 ± 10 g) were purchased from the Samtako Biokorea Co. (Gyeonggi, Korea) and housed in groups of 3~4 per cage and given standard rodent chow. […] Rats were distributed into four different groups (three rats per group; 1 & 2 mg/kg IV group and 2 & 5 mg/kg PO group). Blood was drawn into the heparinized tubes after IV (1 and 2 mg/kg) or PO (2 and 5 mg/kg) administration and was immediately centrifuged at 10,000 rpm for 5 min. […] The supernatant of the centrifuged samples (plasma) were transferred to the clean tubes and stored at −20 °C until analysis.
During the sample preparation of the PK samples, QC samples were included for the assurance of the analytical run.

[5] = rat plasma, nominal QC 15 ng/mL
[6] = rat plasma, nominal QC 165 ng/mL
[7] = rat plasma, nominal QC 1820 ng/mL
[8] = male, Sprague-Dawley, plasma, rat, IV 1 mg/kg
[9] = male, Sprague-Dawley, plasma, rat, IV 2 mg/kg
[10] = male, Sprague-Dawley, plasma, rat, PO 2 mg/kg
[11] = male, Sprague-Dawley, plasma, rat, PO 5 mg/kg

Which “Mean Accuracy (%), stock storage stability” value ([1]; nominal QC 165 ng/mL) does the source give for `Cc1cc(Cn2nnc3c(-c4ccco4)nc(N)nc32)ccc1N` [vipadenant, Vipadenant] here?
The value was 102.5%.

And the “Mean Accuracy (%), stock storage stability” value ([1]; nominal QC 1820 ng/mL)?
The value was 95.6%.

What about the “time stock solution showed stability” value ([1]; stock solution prepared in DMSO) of the same molecule?
The value was 6 months.

What about the “time processed samples stable” value ([2]; auto-sampler storage condition (10 °C)) of the same molecule?
Its value is “at least 24 h”.

What about the “Mean Accuracy (%), post-preparative stability” value ([2]; nominal QC 15 ng/mL) of the same molecule?
Its value is 114.8%.

And the “Mean Accuracy (%), post-preparative stability” value ([2]; nominal QC 165 ng/mL)?
Its value is 99.2%.

What about the “Mean Accuracy (%), post-preparative stability” value ([2]; nominal QC 1820 ng/mL) of the same molecule?
Its value is 94.9%.

And the “Mean Accuracy (%), long-term stability” value [2, 5]?
Its value is 111.8%.

What about the “Mean Accuracy (%), long-term stability” value [2, 6] of the same molecule?
The value was 104.1%.

What about the “Mean Accuracy (%), long-term stability” value [2, 7] of the same molecule?
The value was 103.7%.

And the “Mean Accuracy (%), freeze-thaw stability” value [2, 5]?
Its value is 118.8%.

And the “Mean Accuracy (%), freeze-thaw stability” value [2, 6]?
The value was 88.5%.

What about the “Mean Accuracy (%), freeze-thaw stability” value [2, 7] of the same molecule?
Its value is 91.1%.

What about the “Mean Accuracy (%), short term stability” value [2, 5] of the same molecule?
The value was 97.8%.

And the “Mean Accuracy (%), short term stability” value [2, 6]?
The value was 90.5%.

What about the “Mean Accuracy (%), short term stability” value [2, 7] of the same molecule?
The value was 92.6%.

And the “freeze-thaw stability (in words)” value ([2]; rat plasma, three cycles of freeze-thawing (RT vs. −80 °C))?
Its value is “stable”.

What about the “time stable, long-term stability test” value ([2]; rat plasma, −80 °C storage) of the same molecule?
Its value is “at least 2 weeks”.

And the “time stable in rat plasma QC sample” value ([2]; room temperature)?
The value was “at least 4 h”.

What about the CLint scaled [3] of the same molecule?
The CLint scaled was 1.2 L/h/kg.

What about the AUC(0-t) [4, 8] of the same molecule?
Its AUC(0-t) is 0.451 µg·h/mL.

What about the Tmax [4, 8] of the same molecule?
The Tmax was 2.6 min.

What about the clearance [4, 8] of the same molecule?
The clearance was 2.27 ± 0.432 L/h/kg.

What about the half-life [4, 8] of the same molecule?
The half-life was 48 ± 5.8 min.

What about the Cmax [4, 8] of the same molecule?
Its Cmax is 2.21 ± 1.16 µg/mL.

And the Vd [4, 8]?
Its Vd is 1.08 ± 0.223 L/kg.

And the AUC(0-t) [4, 9]?
The AUC(0-t) was 1.51 µg·h/mL.

What about the Tmax [4, 9] of the same molecule?
Its Tmax is 2 min.

What about the clearance [4, 9] of the same molecule?
The clearance was 1.35 ± 0.258 L/h/kg.

What about the half-life [4, 9] of the same molecule?
Its half-life is 71.2 ± 8.5 min.

And the Cmax [4, 9]?
The Cmax was 3.09 ± 0.222 µg/mL.

What about the Vd [4, 9] of the same molecule?
The Vd was 1.21 ± 0.174 L/kg.

And the AUC(0-t) [4, 10]?
Its AUC(0-t) is 0.279 µg·h/mL.

And the Tmax [4, 10]?
The Tmax was 7.5 min.

And the half-life [4, 10]?
Its half-life is 65.2 ± 20.2 min.

What about the Cmax [4, 10] of the same molecule?
The Cmax was 0.23 ± 0.088 µg/mL.

What about the AUC(0-t) [4, 11] of the same molecule?
The AUC(0-t) was 0.887 µg·h/mL.

And the Tmax [4, 11]?
The Tmax was 30 min.

And the half-life [4, 11]?
The half-life was 116 ± 59 min.

What about the Cmax [4, 11] of the same molecule?
Its Cmax is 0.296 ± 0.0873 µg/mL.

What about the bioavailability ([4]; male, Sprague-Dawley, plasma, rat, PO 2 and 5 mg/kg vs IV 1 and 2 mg/kg, read-out: BA (average bioavailability)) of the same molecule?
Its bioavailability is 30.4 ± 8.9%.

What about the “clearance (in words)” value ([4]; rat IV study) of the same molecule?
Its value is “low to moderate clearance”.
